Measured values: patent US9624269B2, “Peptide inhibitors of BACE1” (GENENTECH, INC., priority 2011, dated 2017)
Positions of bridges follow the written chain, without caps; N, C: chain ends. Residues, ends and D or L forms follow the SMILES beside them.

Columns and labels:
human BACE1 (rhBACE1) [1] = biological target: T1, human BACE1 (rhBACE1) (Homo sapiens, UniProt P56817); experiment: BACE1 fluorescence polarization (FP) competition binding assay with 5-TAMRA-BACE020 probe; settings: competition with 3 nM 5-TAMRA-BACE020, 12 nM rhBACE1, pH 4.4
Experimental: BACE1 Fluorescence Polarization Competition Binding Assay.
BACE1 binding assays were carried out in a final volume of 10 μL per well in black 384-well microplates (Proxiplate-Plus; Perkin Elmer, Waltham, Mass.). A standard binding reaction, initiated by the addition of 5 μL 2× enzyme to 2.5 μL of 4× binding probe and […] of 4× inhibitor, contained 12 nM rhBACE1, 3 nM 5-TAMRA-[…] (SEQ ID NO: 16) (5-TAMRA-BACE020), 50 mM NaOAc, pH 4.4 with 0.1% CHAPS. The reaction was permitted to proceed towards equilibrium for 2 h at ambient temperature prior to fluorescence polarization measurement using Envision (Perkin Elmer). The parallel and perpendicular fluorescent emissions measured in each well at 595 nm (excitation 531 nm polarized light) were used to determine the milli-polarization level (mP) using the following formula: mP=1000*(S-G*P)/(S+G*P) where S=parallel emission, P=perpendicular emission and G=0.65. The mP value in each well was plotted as a function of inhibitor concentration and the 50% inhibition (IC50) values were determined using a nonlinear least squares fit of the data to a four parameter equation using Prism 5.0 software (GraphPad Software, San Diego, Calif.). 5-TAMRA-labeled BACE020 was purchased from American Peptide Company, Inc (Sunnyvale, Calif.) and solubilized in DMSO to 100 mM for storage.
The affinities of BACE1 peptide ligands were measured using the abovementioned competition binding FP assay for determining IC50 values with serially diluted peptides. A Caliper assay was used to measure the inhibition of BACE1 enzymatic activity by peptide ligands. […] Furthermore, the IC50 values measured by the Caliper assay for peptides BACE017-021 and BACE025-028 are consistent with those measured by the HTRF assay.
Target sequence in this assay (P56817 46-501): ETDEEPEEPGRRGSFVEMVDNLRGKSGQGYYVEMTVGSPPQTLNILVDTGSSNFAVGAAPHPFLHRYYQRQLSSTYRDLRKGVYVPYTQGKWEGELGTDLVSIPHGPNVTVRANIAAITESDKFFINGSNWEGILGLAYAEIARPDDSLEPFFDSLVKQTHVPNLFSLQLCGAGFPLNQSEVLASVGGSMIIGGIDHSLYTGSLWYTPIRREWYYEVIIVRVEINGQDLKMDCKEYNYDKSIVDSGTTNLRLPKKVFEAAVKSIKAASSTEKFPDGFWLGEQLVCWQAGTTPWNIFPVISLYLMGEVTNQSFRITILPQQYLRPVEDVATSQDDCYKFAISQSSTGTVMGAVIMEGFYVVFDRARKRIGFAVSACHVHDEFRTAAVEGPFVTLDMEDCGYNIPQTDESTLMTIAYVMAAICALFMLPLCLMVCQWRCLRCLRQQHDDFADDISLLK

human BACE1 (rhBACE1) [2] = biological target: T1, human BACE1 (rhBACE1); experiment: BACE1 HTRF activity assay (Bi27 substrate); format: biochemical; settings: for IC50: Bi27 27-mer substrate, pH 4.4
Experimental: Briefly, a homogeneous time-resolved fluorescence (HTRF) assay can be used to measure BACE1 aspartyl protease activity with the use of an amyloid precursor protein BACE1 cleavage site peptide. For example, the Bi27 peptide (Biotin-[…] (SEQ ID NO:5), American Peptide Company)), is combined with BACE1 pre-incubated with an anti-BACE antibody in BACE reaction buffer (50 mM sodium acetate pH 4.4 and 0.1% CHAPS) in a 384-well plate (Proxiplate™, Perkin-Elmer). The proteolytic reaction mixture is incubated at ambient temperature for 75 minutes and is quenched by the addition of 5 μL HTRF detection mixture containing 2 nM Streptavidin-D2 and 150 nM of an anti-amyloid beta antibody labeled with Europium cryptate in detection buffer (200 mM Tris pH 8.0, 20 mM EDTA, 0.1% BSA, and 0.8M KF). The final reaction mixture is incubated at ambient temperature for 60 minutes and the TR-FRET signal is measured using an EnVision Multilabel Plate Reader™ (Perkin-Elmer) at an excitation wavelength of 320 nm and emission wavelengths of 615 and 665 nm.
BACE1 HTRF Activity Assay.
The BACE1 HTRF reaction was initiated by the addition of 2 μl of 600 nM Bi27 (Biotin-[…] (SEQ ID NO: 5), American Peptide Company) to 6 μl of 2.7 nM rhBACE1 pre-incubated with peptides or small molecule inhibitors in BACE1 reaction buffer (50 mM NaOAc pH 4.4 and 0.1% CHAPS) in a 384-well Proxiplate (Perkin Elmer). The 8 μl proteolytic reaction mixture was incubated at ambient temperature for 24 h and was quenched by the addition of 8 μl HTRF detection mixture containing 150 nM Streptavidin-D2 and 5 nM 6E10 labeled with Europium cryptate in detection buffer (200 mM Tris pH 8.0, 20 mM EDTA, 0.1% BSA, and 0.8 M KF). The final reaction mixture was incubated at room temperature for 60 min and the TR-FRET signal was measured on the EnVision Multilabel Plate Reader (Perkin Elmer) (excitation at 320 nm, emission at 615 and 665 nm). The data was analyzed using GraphPad Prism 5 (La Jolla, Calif.).
Target sequence in this assay (P56817 46-501): as above

human BACE1 (rhBACE1) [3] = biological target: T1, human BACE1 (rhBACE1); experiment: Caliper BACE1 activity assay (microfluidic capillary electrophoresis); format: biochemical; set-up: containing human BACE1 (extracellular domain); settings: 12 nM rhBACE1, 1 μM FAM-substrate, pH 4.4
Experimental: An MCE assay reactions can be carried out in a standard enzymatic reaction, initiated by the addition of substrate to enzyme and 4× compound, containing human BACE1 (extracellular domain), amyloid precursor protein beta secretase active site peptide (FAM-[…]-CONH2 (SEQ ID NO: 20)), 50 mM NaOAc pH 4.4 and 0.1% CHAPS. After incubation for 60 minutes at ambient temperature, the product and substrate in each reaction is separated using a 12-sipper microfluidic chip analyzed on an LC3000® (both, Caliper Life Sciences). The separation of product and substrate is optimized by choosing voltages and pressure using the manufacturer's optimization software. Substrate conversion is calculated from the electrophoregram using HTS Well Analyzer software (Caliper Life Sciences).
BACE1, BACE2 and Cathepsin D Activity Assay Using Microfluidic Capillary Electrophoresis (MCE).
BACE1, BACE2, and Cathepsin D reactions were carried out in a final volume of 20 μl per well in a 384-well microplate using a Caliper LabChip 3000 (Hopkinton, Mass.). A standard enzymatic reaction, initiated by the addition of 10 μ12× substrate to 5 μl of 4× enzyme and 5 μl of 4× peptide or small molecule inhibitor, contained 12 nM rhBACE1, 1 μM FAM-[…]-amide (SEQ ID NO: 20), 50 mM NaOAc, pH 4.4, 0.1% CHAPS. The same reaction conditions were used for rhBACE2 (5 nM) and Cathepsin D (6 nM) (Cat. No. 219394; EMD Biosciences, San Diego, Calif.). After incubation for 60 min at room temperature, the product and substrate in each reaction were separated using a 12-sipper microfluidic chip. Separation of product and substrate was optimized by choosing voltages and pressure using the Caliper Optimizer software. The separation buffer contained 100 mM HEPES, pH 7.2, 0.015% Brij-35, 0.1% Coating Reagent #3, 10 mM EDTA and 5% DMSO. The separation conditions used a downstream voltage of −500 V, an upstream voltage of −2250 V, and a screening pressure of −1.2 psi. The product and substrate fluorescence was excited at 488 nm and detected at 530 nm. Substrate conversion was calculated from the electrophoregram using the Caliper HTS Well Analyzer software.
Target sequence in this assay (P56817 46-457 limits assumed): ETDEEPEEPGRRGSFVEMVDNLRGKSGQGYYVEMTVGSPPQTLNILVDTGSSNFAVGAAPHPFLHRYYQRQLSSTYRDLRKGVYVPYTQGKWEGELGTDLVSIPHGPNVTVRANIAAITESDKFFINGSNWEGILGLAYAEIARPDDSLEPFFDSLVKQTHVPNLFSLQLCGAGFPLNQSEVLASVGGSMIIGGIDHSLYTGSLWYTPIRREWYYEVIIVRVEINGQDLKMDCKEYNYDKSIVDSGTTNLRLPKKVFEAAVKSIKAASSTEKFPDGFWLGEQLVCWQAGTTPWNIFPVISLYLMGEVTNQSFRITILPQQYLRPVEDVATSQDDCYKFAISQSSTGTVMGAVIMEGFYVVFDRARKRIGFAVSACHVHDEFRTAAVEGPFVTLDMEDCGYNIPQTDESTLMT

[4] = test system: Aβ1-40 production in 293-hAPP cells; experiment: Aβ1-40 assay in 293-hAPP cells; format: cell-based, human; settings: 293-HEK cells stably transfected with APP, 24 h
Experimental: Aβ1-40 Assay in 293-hAPP Cells.
Aβ1-40 production was measured in 293-HEK cells stably expressing wild-type human APP(695) complementary DNA (cDNA) (293-hAPP). Cells were seeded overnight at 3×10^4 cells per well in a 96-well plate. Fresh media [Dulbecco's modified Eagle's medium (DMEM)+10% fetal bovine serum (FBS)] containing various inhibitors were incubated with the 293-hAPP cells for 24 h. The cellular medium was harvested and assayed for the presence of Aβ1-40 with an Aβ1-40 HTRF assay (CisBio) according to the manufacturer's instructions. Aβ1-40 values were normalized for cell viability, as determined with the CellTiter-Glo Luminescent Cell Viability Assay (Promega). Experiments were performed at least 3 times, and each point in each experiment was repeated in duplicate. Data was plotted with a 4-parameter nonlinear regression curve-fitting program (KaleidaGraph, Synergy Software).

BACE1 [5] = biological target: T2, BACE1 (Homo sapiens, UniProt P56817); experiment: Biotinylated BACE020 competition binding ELISA; set-up: extracellular domain (ECD) (residues 22-457) and a C-terminal His8 tag; made in house; host or cells: Chinese hamster ovary cells (transient); settings: concentration dependent addition of competitor
Experimental: The coated wells were washed with buffer (PBS, 0.05% Polysorbate 20) and blocked with assay buffer (PBS, pH 7.4, 0.5% BSA, 0.05% Tween 20, 15 ppm Proclin) for 1 h at room temperature with gentle shaking.
Target sequence in this assay (P56817 22-457): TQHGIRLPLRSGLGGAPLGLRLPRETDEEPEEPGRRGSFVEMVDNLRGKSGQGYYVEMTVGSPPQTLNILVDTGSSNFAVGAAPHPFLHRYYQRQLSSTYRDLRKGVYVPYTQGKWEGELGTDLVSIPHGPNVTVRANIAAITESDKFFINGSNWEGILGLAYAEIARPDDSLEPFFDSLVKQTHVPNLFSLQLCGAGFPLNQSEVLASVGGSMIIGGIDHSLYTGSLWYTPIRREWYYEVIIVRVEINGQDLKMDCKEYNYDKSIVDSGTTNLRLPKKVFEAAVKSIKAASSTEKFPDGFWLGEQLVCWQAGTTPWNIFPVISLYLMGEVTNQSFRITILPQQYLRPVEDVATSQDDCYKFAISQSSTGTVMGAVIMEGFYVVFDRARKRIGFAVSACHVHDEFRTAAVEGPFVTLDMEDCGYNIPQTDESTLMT

BACE1 [6] = biological target: T2, BACE1; experiment: Phage ELISA of peptide-displaying phage on plate-immobilized BACE1; format: binding; settings: 70 nM BMS1 peptide
Experimental: BMS1, BMS2 and BMS4 are the same as peptide identifiers 1, 2 and 4, respectively as previously described (Kornacker, M. G. et al. (2005) Biochemistry 44: 11567-73). […] FIG. 1C depicts the competition of peptide-displaying phage bound to BACE1 with synthesized peptide BMS1. The bars represent phage ELISA signal in the absence (gray) or presence (black) of 70 nM BMS1 peptide. The phage peptide ID is as denoted in FIG. 1A.
BACE017 is a BACE1 binding peptide ligand obtained from the solution panning of BACE1 against the naïve peptide library in the presence of 100 μM BACE010. BACE018-BACE021 are peptide sequences for BACE1 binding peptides derived from the affinity maturation of BACE017. The phage spot ELISA data is listed to indicate the relative binding affinity for individual clones. The column labeled with ELISA is the phage-binding signal to BACE1, s/n ratio represents the signal/noise ratio, in which “signal” is the data as shown in column “ELISA” and noise is the phage-binding signal to BSA as background nonspecific binding. […]
After 4 rounds of binding selection, individual phage clones were analyzed in a high-throughput spot phage ELISA (Sidhu, S. S. et al. (2000) Methods Enzymol 328: 333-63) using plate-immobilized BACE1 as the target. The binding signal of the same phage particle to BSA was detected as non-specific binding noise. […]
Target sequence in this assay (P56817 46-501): as the sequence (P56817 46-501) above

CC[C@H](C)[C@H](NC(=O)[C@H](Cc1c[nH]cn1)NC(=O)[C@H](CCC(=O)O)NC(=O)[C@H](CCC(=O)O)NC(=O)[C@H](CC(N)=O)NC(C)=O)C(=O)N[C@@H](Cc1ccc(O)cc1)C(=O)N[C@H]1CSSC[C@@H](C(=O)NCC(N)=O)NC(=O)CNC(=O)[C@H](CC(C)C)NC(=O)CNC(=O)[C@H](CC(C)C)NC(=O)[C@H](CC(C)C)NC(=O)[C@H](CCCNC(=N)N)NC1=O [BACE017] (Ac-NEEHIYCRLLGLGCG-NH2; disulfide 7-14)
IC50 (human BACE1 (rhBACE1) [1]): > 10 µM
IC50 (human BACE1 (rhBACE1) [2]): 0.438 µM
IC50 (human BACE1 (rhBACE1) [3]): > 10 µM

CSCC[C@@H]1NC(=O)[C@H](CC(C)C)NC(=O)[C@H](CCCNC(=N)N)NC(=O)[C@@H](NC(=O)[C@H](Cc2ccc(O)cc2)NC(=O)[C@@H]2CCCN2C(=O)[C@H](CO)NC(=O)[C@H](CC(C)C)NC(=O)[C@H](CCC(=O)O)NC(=O)[C@H](CC(N)=O)NC(C)=O)CSSC[C@@H](C(=O)N[C@@H](CC(=O)O)C(N)=O)NC(=O)CNC(=O)[C@H](CC(C)C)NC(=O)CNC1=O [BACE019] (Ac-NELSPYCRLMGLGCD-NH2; disulfide 7-14)
IC50 (human BACE1 (rhBACE1) [1]): 0.01 ± 0.003 µM
IC50 (human BACE1 (rhBACE1) [2]): 0.01 µM

CC[C@H](C)[C@@H]1NC(=O)CNC(=O)[C@H](CC(C)C)NC(=O)[C@H](CC(C)C)NC(=O)[C@H](CCCNC(=N)N)NC(=O)[C@@H](NC(=O)[C@H](Cc2ccc(O)cc2)NC(=O)[C@H](CCSC)NC(=O)[C@H](CO)NC(=O)[C@H](CCC(=O)O)NC(=O)[C@H](CCC(=O)O)NC(=O)[C@H](CC(N)=O)NC(C)=O)CSSC[C@@H](C(=O)NCC(N)=O)NC(=O)CNC1=O [BACE020] (Ac-NEESMYCRLLGIGCG-NH2; disulfide 7-14)
IC50 (human BACE1 (rhBACE1) [1]): 0.011 ± 0.002 µM
Effect on BACE1 activity in HTRF enzyme activity assay (in words) (human BACE1 (rhBACE1) [2]): best inhibitory activity
IC50 (human BACE1 (rhBACE1) [2]): 0.012 µM
Inhibition of Aβ production in cells (in words) [4]: potent inhibitor
IC50 (human BACE1 (rhBACE1) [3]): 0.011 ± 0.003 µM

Ac-NEESMYSRLLGIGSG-NH2 [BACE027]
IC50 (human BACE1 (rhBACE1) [1]): > 10 µM
Inhibition of Aβ production in cells (in words) [4]: no inhibition
IC50 (human BACE1 (rhBACE1) [3]): > 10 µM

Ac-NLTTYPYFIPLP-NH2 [BMS1, reference compound]
IC50 (human BACE1 (rhBACE1) [1]): > 10 µM
Inhibition of Aβ production in cells (in words) [4]: no inhibition
Competition for binding of biotinylated BACE020 to BACE1 (BACE1 [5]): no competition

Ac-SGPYFIEYMSAV-NH2 [BACE010]
IC50 (human BACE1 (rhBACE1) [1]): > 10 µM
Effect on BACE1 activity in HTRF enzyme activity assay (in words) (human BACE1 (rhBACE1) [2]): very weak inhibitor
Binding of phage-displayed peptide to BACE1 in competition with peptide BMS1 (BACE1 [6]): competitive

BACE011: Ac-SGCLDYPCFVPIS-NH2 (disulfide 3-8 (inferred))
Effect on BACE1 activity in HTRF enzyme activity assay (in words) (human BACE1 (rhBACE1) [2]): activator
Binding of phage-displayed peptide to BACE1 in competition with peptide BMS1 (BACE1 [6]): competitive

OM99-2 [reference compound]
Inhibition of Aβ production in cells (in words) [4]: not all enzymatic inhibitors showed cellular activity
